Experimental data published in patent US4812442A, “Tripeptide renin inhibitors” (priority 1987, dated 1989).
Structures can show the parent of a compound that is named as a salt. Square brackets hold non-standard residues; d marks the D form. Peptide text beside a SMILES is read from it. * marks the point of attachment. Sta = CC(C)C[C@H](N)[C@@H](O)CC(=O)O; Isovaleryl = CC(C)CC(=O)*

Target: T1, renin (Homo sapiens, UniProt P00797)
T1 sequence (P00797 67-406): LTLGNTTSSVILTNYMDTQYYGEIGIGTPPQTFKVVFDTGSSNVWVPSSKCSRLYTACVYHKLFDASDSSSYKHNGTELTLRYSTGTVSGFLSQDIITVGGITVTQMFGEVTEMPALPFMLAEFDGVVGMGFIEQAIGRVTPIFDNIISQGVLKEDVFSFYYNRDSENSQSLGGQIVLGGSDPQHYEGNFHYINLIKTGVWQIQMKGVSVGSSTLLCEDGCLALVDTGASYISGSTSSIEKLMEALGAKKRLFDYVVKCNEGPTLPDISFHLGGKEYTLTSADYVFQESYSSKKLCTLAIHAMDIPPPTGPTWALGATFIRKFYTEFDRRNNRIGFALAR
Assay: Renin inhibition IC50 (methods of J. Med. Chem., 1985, 28, 1789-1790)
Assay type: biochemical
Conditions: not given
Description: The following examples are intended to be representative and not limiting. IC50 results were obtained according to the methods described in J. Med. Chem., 1985, 28, 1789-1790.

Compound	IC50
CC(C)(C)OC(=O)N[C@@H](Cc1ccccc1)C(=O)N[C@@H](Cc1c[nH]cn1)C(=O)N[C@@H](CC1CCCCC1)[C@@H](O)CC(=O)NC1C[N+]2(C)CCC1CC2 (stereo partly drawn) [Example 2, N^α -t-butoxycarbonyl-L-phenylalanyl-L-histidyl-(3S,4S)-4-amino-5-cyclohexyl-3-hydroxy-pentanoyl-1-methylquinuclidium-3-yl amide acetate]	38 nM
CC(C)(C)OC(=O)N[C@@H](Cc1ccccc1)C(=O)N[C@@H](Cc1c[nH]cn1)C(=O)N[C@@H](CC1CCCCC1)[C@@H](O)CC(=O)NC1C[N+]2(CCCCO)CCC1CC2 (stereo partly drawn) [Example 3, N^α -t-butoxycarbonyl-L-phenylalanyl-L-histidyl(3S,4S)-4-amino-5-cyclohexyl-3-hydroxypentanoyl-1-(4-hydroxybutyl)-quinuclidinium-3-yl amide acetate]	33 nM

Same assay, conditions: renin inhibition; read-out: IC50

Compound	IC50
CC[C@H](C)[C@@H](C[N+](C)(C)CCO)NC(=O)C[C@H](O)[C@H](CC1CCCCC1)NC(=O)[C@H](Cc1c[nH]cn1)NC(=O)[C@H](Cc1ccccc1)NC(=O)OC(C)(C)C [Example 19, acetate salt]	10 nM
CC(C)(C)OC(=O)N[C@@H](Cc1ccccc1)C(=O)N[C@@H](Cc1c[nH]cn1)C(=O)N[C@@H](CC1CCCCC1)[C@@H](O)CC(=O)N1CCSCC1 [Example 5, Boc-Phe-His-ACHPA-4-thiamorpholine]	19 nM
CC(C)(C)OC(=O)N[C@@H](Cc1ccccc1)C(=O)N[C@@H](Cc1c[nH]cn1)C(=O)N[C@@H](CC1CCCCC1)[C@@H](O)CC(=O)NC1CN2CCC1CC2 (stereo partly drawn) [Example 1, N^α -t-butoxycarbonyl-L-phenylalanyl-L-histidyl(3S,4S)-4-amino-5-cyclohexyl-3-hydroxypentanoyl-3-quinuclidinyl amide]	33 nM
CC(C)C[C@H](NC(=O)[C@H](Cc1ccccc1)NC(=O)[C@H](Cc1ccccc1)NC(=O)OC(C)(C)C)[C@@H](O)CC(=O)N1CCN(c2cccc[n+]2[O-])CC1 [Example 17]	2000 nM
CC(C)(C)OC(=O)N[C@@H](Cc1ccccc1)C(=O)N[C@@H](Cc1c[nH]cn1)C(=O)N[C@@H](CC1CCCCC1)[C@@H](O)CC(=O)NC1C[N+]2([O-])CCC1CC2 (stereo partly drawn) [Example 4, N^α -t-butoxycarbonyl-L-phenylalanyl-L-histidyl-(3S,4S)-4-amino-5-cyclohexyl-3-hydroxypentanoyl-quinuclidinium-3-yl-1-oxide amide]	20 nM
CC(C)(C)OC(=O)N[C@@H](Cc1ccccc1)C(=O)N[C@@H](Cc1c[nH]cn1)C(=O)N[C@@H](CC1CCCCC1)[C@@H](O)CC(=O)N1CCS(=O)(=O)CC1 [Example 7, Boc-Phe-His-ACHPA-4-thiamorpholine-1,1-dioxide]	55 nM
CC[C@H](C)[C@@H](CN(C)C)NC(=O)C[C@H](O)[C@H](CC1CCCCC1)NC(=O)[C@H](Cc1c[nH]cn1)NC(=O)[C@H](Cc1ccccc1)NC(=O)OC(C)(C)C [Example 12]	5 nM
CC[C@H](C)[C@@H](CN)NC(=O)C[C@H](O)[C@H](CC1CCCCC1)NC(=O)[C@H](Cc1c[nH]cn1)NC(=O)[C@H](Cc1ccccc1)NC(=O)OC(C)(C)C [Example 11]	33 nM
CC(C)(C)OC(=O)N[C@@H](Cc1ccccc1)C(=O)N[C@@H](Cc1c[nH]cn1)C(=O)N[C@@H](CC1CCCCC1)[C@@H](O)CC(=O)N1CC[S+]([O-])CC1 [Example 6, Boc-Phe-His-ACHPA-4-thiamorpholine-1-oxide]	67 nM
CC[C@H](C)NC(=O)C[C@H](O)[C@H](CC1CCCCC1)NC(=O)[C@H](Cc1c[nH]cn1)NC(=O)[C@H](Cc1ccccc1)NC(=O)OC(C)(C)C [Example 9, N^α -t-butoxycarbonyl-L-phenylalanyl-L-histidyl(3S,4S)-4-amino-5-cyclohexyl-3-hydroxypentanoyl-2S-(+)-butyl amide]	32 nM
CC[C@H](C)[C@@H](C[N+](C)(C)C)NC(=O)C[C@H](O)[C@H](CC1CCCCC1)NC(=O)[C@H](Cc1c[nH]cn1)NC(=O)[C@H](Cc1ccccc1)NC(=O)OC(C)(C)C [Example 18, di-acetate salt]	15 nM

System: nephrectomized rats
Assay: not given
Conditions: after the injection of hog renin into nephrectomized rats; cited from earlier work

Compound	effect on blood pressure in vivo
CC(C)CC(=O)N[C@H](C(=O)N[C@H](C(=O)N[C@@H](CC(C)C)[C@@H](O)CC(=O)N[C@@H](C)C(=O)N[C@@H](CC(C)C)[C@@H](O)CC(=O)O)C(C)C)C(C)C [pepstatin] (Isovaleryl-VV[Sta]A[Sta]-OH)	reduces blood pressure
